According to patent US12319912B2, “MicroRNA expression promoting agent and food or beverage for promoting expression of microRNA” (Kewpie Corporation, priority 2019, dated 2025):

How the values were obtained:
Format in all cases: in vivo, nude mice (BALB/c-nu/nu)
Settings in all cases: 0.25% (w/w) pterostilbene in feed, MM-231-luc-D3H2LN tumors removed at 21 days, female nude mice
let-7a = assay: Expression level of let-7a in removed tumors after oral administration of pterostilbene-containing feed (quantitative RT-PCR)
Protocol: (§1) An animal feed for test (pterostilbene-containing powdery animal feed) was prepared by the following method. That is, first, 50 g of corn oil was weighed and heated to 70° C. Pterostilbene was added to the heated corn oil and was dissolved therein. Reagents other than corn oil and pterostilbene (other reagents) were ground in a mortar, and the mixture was mixed. The corn oil in which pterostilbene was dissolved was added to the mixture of other reagents, and the mixture was mixed by sufficiently grinding in a mortar. Subsequently, the mixture was further mixed with a stirrer for about 30 minutes, and thus an animal feed for test was prepared. […]
(§2) At a time point where one week had passed after grouping, the mice in each group were subjected to a cancer cell transplantation experiment. […] Confirmation of whether the cancer cells were transplanted was achieved by leaving the animals for a while after transplantation, intraperitoneally administering a 15 mg/ml luciferin solution (Beetle Luciferin, Potassium Salt, Promega Corporation) in an amount of 150 mg/kg, and measuring cell-derived luminescence (luciferase activity) with IVIS Spectrum (PerkinElmer, Inc.) after about 10 minutes. […] The body weights of the mice were measured in a timely manner. […] Then, luminescence was observed over time with IVIS spectrum every other week from the day of administration initiation. […]

miR-200c = assay: Expression level of miR-200c in removed tumors after oral administration of pterostilbene-containing feed (quantitative RT-PCR)
Protocol: as §1, §2

miR-16 = assay: Expression level of miR-16 in removed tumors after oral administration of pterostilbene-containing feed (quantitative RT-PCR)
Protocol: as §1, §2

miR-141 = assay: Expression level of miR-141 in removed tumors after oral administration of pterostilbene-containing feed (quantitative RT-PCR)
Protocol: as §1, §2

miR-126 = assay: Expression level of miR-126 in removed tumors after oral administration of pterostilbene-containing feed (quantitative RT-PCR)
Protocol: as §1, §2

miR-193b = assay: Expression level of miR-193b in removed tumors after oral administration of pterostilbene-containing feed (quantitative RT-PCR)
Protocol: as §1, §2

miR-34a = assay: Expression level of miR-34a in removed tumors after oral administration of pterostilbene-containing feed (quantitative RT-PCR)
Protocol: as §1, §2

COc1cc(/C=C/c2ccc(O)cc2)cc(OC)c1 [pterostilbene, Pterostilbene]
promoted: expression of let-7a as compared to the control group (let-7a) | expression of miR-200c as compared to the control group (miR-200c) | expression of miR-16 as compared to the control group (miR-16) | expression of miR-141 as compared to the control group (miR-141) | expression of miR-126 as compared to the control group (miR-126) | expression of miR-193b as compared to the control group (miR-193b) | expression of miR-34a as compared to the control group (miR-34a)
